Some results are limits rather than exact numbers.

Conditions in all cases: average where tested multiple times
In assay [1] the target is T1, BCAT2 (Homo sapiens, UniProt O15382).
T1 sequence (O15382 28-392): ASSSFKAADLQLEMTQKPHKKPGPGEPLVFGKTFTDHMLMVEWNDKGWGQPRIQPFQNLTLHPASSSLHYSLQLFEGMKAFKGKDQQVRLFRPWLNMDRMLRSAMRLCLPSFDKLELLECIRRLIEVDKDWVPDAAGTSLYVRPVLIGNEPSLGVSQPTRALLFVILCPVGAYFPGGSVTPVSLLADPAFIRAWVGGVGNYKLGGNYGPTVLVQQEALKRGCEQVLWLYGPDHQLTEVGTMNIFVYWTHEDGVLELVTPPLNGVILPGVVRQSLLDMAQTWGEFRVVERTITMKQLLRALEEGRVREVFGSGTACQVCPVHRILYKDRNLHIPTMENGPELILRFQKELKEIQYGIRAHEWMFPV
Put plainly: BCAT2 in vitro enzyme inhibition assay (resazurin/diaphorase-coupled fluorescence). It is filed as biochemical. In a few lines:
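Coupled fluorescence readout: glutamate formed from L-leucine/α-ketoglutarate transamination drives GDH/NAD/diaphorase reduction of resazurin (Ex 540/Em 590). Human BCAT2 was first exposed 1 h at room temperature to compound, top final 100 μM in 3-fold, 10-point series; substrate reaction ran 1 h before SDS quench, in technical duplicate with DMSO max and enzyme-free min controls.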

Assay [2] addresses T1, BCAT2. Briefly: BCAT2 in vitro cell inhibition using engineered A549 cells (KMV cell assay, 13C6-KMV by LC-MS/MS). Details: The result was an engineered A549 cell line that expressed endogenous BCAT2; endogenous in cells; host or cells: A549 cells with MUT and BCAT1 knocked out by CRISPR/CAS9. It is filed as cell-based.
A further assay deals with T2, hBCAT1 (Homo sapiens, UniProt P54687).
T2 sequence (P54687 1-386): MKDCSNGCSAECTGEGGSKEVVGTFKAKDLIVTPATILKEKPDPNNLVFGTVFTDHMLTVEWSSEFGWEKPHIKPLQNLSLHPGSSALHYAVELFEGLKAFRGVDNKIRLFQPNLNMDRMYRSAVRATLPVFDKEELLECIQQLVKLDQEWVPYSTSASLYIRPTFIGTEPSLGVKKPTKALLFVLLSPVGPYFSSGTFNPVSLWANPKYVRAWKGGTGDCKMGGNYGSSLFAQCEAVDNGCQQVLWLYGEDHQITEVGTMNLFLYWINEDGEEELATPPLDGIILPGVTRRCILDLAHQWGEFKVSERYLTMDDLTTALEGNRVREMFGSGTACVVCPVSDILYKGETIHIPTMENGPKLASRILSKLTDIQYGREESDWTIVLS
Put plainly: BCAT1 in vitro enzyme inhibition assay (resazurin/diaphorase-coupled fluorescence). In kind it is biochemical. In a few lines:
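Human BCAT1 activity read by resazurin/diaphorase-coupled fluorescence. Compounds added from 50× DMSO stocks at 1:50, giving 10-point 3-fold titrations from 100 μM top final concentration. Run in technical duplicate; repeat tests averaged.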

As for `CN1C[C@@H](NC(=O)c2ncc(Cl)s2)C[C@@H](n2c(-c3ccccc3F)nc3cnc(-c4nc[nH]n4)cc32)C1` (single isomer, unassigned) [Example 133], the IC50 on BCAT2 [1] was 100 to 500 nM; against BCAT2 [2], greater than 1000 nM; at hBCAT1 it was 1000 to 5000 nM.

On to `O=C(N[C@H]1C[C@H](O)C[C@@H](n2c(-c3ccccc3F)nc3cnc(-c4ncco4)cc32)C1)c1ncc(Cl)s1` [Example 260, 5-chloro-N-((1R,3S,5S)-3-(2-(2-fluorophenyl)-6-(oxazol-2-yl)-1H-imidazo[4,5-c]pyridin-1-yl)-5-hydroxycyclohexyl)thiazole-2-carboxamide], for which the IC50 is no more than 100 nM against BCAT2 [1], no more than 100 nM at BCAT2 [2] and less than 500 nM on hBCAT1.

`CC(=O)N1CC(NC(=O)c2ccc(Br)s2)CC(n2c(-c3ccccc3F)nc3cnc(-c4ncco4)cc32)C1` (stereo not drawn) [Example 118, N-(1-acetyl-5-(2-(2-fluorophenyl)-6-(oxazol-2-yl)-1H-imidazo[4,5-c]pyridin-1-yl)piperidin-3-yl)-5-bromothiophene-2-carboxamide]: the IC50 against BCAT2 [1] is no more than 100 nM; against BCAT2 [2], no more than 100 nM; against hBCAT1 it was less than 500 nM.

As to `Cc1cnn(-c2cc3c(cn2)nc(-c2ccccn2)n3[C@@H]2CCC[C@H](NC(=O)c3ccc(Br)s3)C2)n1` [Example 39, 5-bromo-N-((1S,3R)-3-(6-(4-methyl-2H-1,2,3-triazol-2-yl)-2-(pyridin-2-yl)-1H-imidazo[4,5-c]pyridin-1-yl)cyclohexyl)thiophene-2-carboxamide], the values for the IC50 at BCAT2 [1], against BCAT2 [2] and against hBCAT1 were no more than 100 nM, no more than 100 nM and less than 500 nM, respectively.

As for `N#Cc1ccc(F)c(-c2nc3cnc(-c4nc[nH]n4)cc3n2[C@@H]2CCC[C@H](NC(=O)c3ccc(Cl)s3)C2)c1` [Example 345, 5-chloro-N-((1S,3R)-3-(2-(5-cyano-2-fluorophenyl)-6-(1H-1,2,4-triazol-3-yl)-1H-imidazo[4,5-c]pyridin-1-yl)cyclohexyl)thiophene-2-carboxamide], the IC50 was 100 to 500 nM against BCAT2 [1], 500 to 1000 nM against BCAT2 [2] and 500 to 1000 nM on hBCAT1.

In the case of `CN1C[C@H](NC(=O)c2ncc(Cl)s2)C[C@H](n2c(-c3ccccc3F)nc3cnc(-c4nc[nH]n4)cc32)C1` (single isomer, unassigned) [Example 134], the half-inhibitory concentration (IC50) against BCAT2 [1] was no more than 100 nM; against BCAT2 [2] it was no more than 100 nM; on hBCAT1, less than 500 nM.

Regarding `O=C(N[C@H]1CCC[C@@H](n2c(C3CCCOC3)nc3cnc(-c4nc[nH]n4)cc32)C1)c1ncc(Cl)s1` (single isomer, unassigned) [Example 102], the concentration for half-maximal inhibition (IC50) at BCAT2 [1] is no more than 100 nM; at BCAT2 [2], greater than 1000 nM; on hBCAT1 it was 1000 to 5000 nM.

For `CC(C)Cc1nc2cnc(-c3nc[nH]n3)cc2n1[C@@H]1CCC[C@H](NC(=O)c2ncc(C#N)s2)C1` [Example 349, 5-cyano-N-((1S,3R)-3-(2-isobutyl-6-(1H-1,2,4-triazol-3-yl)-1H-imidazo[4,5-c]pyridin-1-yl)cyclohexyl)thiazole-2-carboxamide], the IC50 against BCAT2 [1] is no more than 100 nM; on BCAT2 [2], 100 to 500 nM; against hBCAT1, less than 500 nM.

Take `Cc1csc(-c2cc3c(cn2)nc(CC(C)C)n3[C@@H]2CCC[C@H](NC(=O)c3ncc(Cl)s3)C2)n1` [Example 326, 5-chloro-N-((1S,3R)-3-(2-isobutyl-6-(4-methylthiazol-2-yl)-1H-imidazo[4,5-c]pyridin-1-yl)cyclohexyl)thiazole-2-carboxamide]: the results for the IC50 against BCAT2 [1], on BCAT2 [2] and at hBCAT1 were no more than 100 nM, no more than 100 nM and less than 500 nM, respectively.

In the case of `Cc1cccnc1-c1cc2c(cn1)nc(-c1ccccc1F)n2[C@@H]1CCC[C@H](NC(=O)c2ncc(Cl)s2)C1` [Example 161, 5-chloro-N-((1S,3R)-3-(2-(2-fluorophenyl)-6-(3-methylpyridin-2-yl)-1H-imidazo[4,5-c]pyridin-1-yl)cyclohexyl)thiazole-2-carboxamide], the values for the IC50 against BCAT2 [1], on BCAT2 [2] and on hBCAT1 were no more than 100 nM, 100 to 500 nM and 1000 to 5000 nM, respectively.

As for `O=C(NC1CC(O)CC(n2c(-c3ccccc3F)nc3cnc(-c4nnc[nH]4)cc32)C1)c1ncc(Cl)s1` (stereo not drawn) [Example 115, 5-chloro-N-(3-(2-(2-fluorophenyl)-6-(4H-1,2,4-triazol-3-yl)-1H-imidazo[4,5-c]pyridin-1-yl)-5-hydroxycyclohexyl)thiazole-2-carboxamide], the IC50 against BCAT2 [1] is no more than 100 nM; at BCAT2 [2], no more than 100 nM; against hBCAT1 it was less than 500 nM.

As to `CC(C)(F)Cc1nc2cnc(-c3ccccn3)cc2n1[C@@H]1CCC[C@H](NC(=O)c2ncc(Cl)s2)C1` [Example 302, 5-chloro-N-((1S,3R)-3-(2-(2-fluoro-2-methylpropyl)-6-(pyridin-2-yl)-1H-imidazo[4,5-c]pyridin-1-yl)cyclohexyl)thiazole-2-carboxamide], the half-maximal inhibitory concentration (IC50) on BCAT2 [1] was no more than 100 nM; against BCAT2 [2], 100 to 500 nM; against hBCAT1, 500 to 1000 nM.

For the compound `O=C(N[C@H]1CCC[C@@H](n2c(-c3ncccc3F)nc3cnc(-n4ccnn4)cc32)C1)c1ccc(Br)s1` [Example 12, 5-bromo-N-((1S,3R)-3-(2-(3-fluoropyridin-2-yl)-6-(1H-1,2,3-triazol-1-yl)-1H-imidazo[4,5-c]pyridin-1-yl)cyclohexyl)thiophene-2-carboxamide], the IC50 is no more than 100 nM against BCAT2 [1], 100 to 500 nM on BCAT2 [2] and less than 500 nM at hBCAT1.

Take `Cn1ccc(-c2cc3c(cn2)nc(-c2ccccc2F)n3[C@@H]2CCC[C@H](NC(=O)c3ncc(Cl)s3)C2)n1` [Example 181, 5-chloro-N-((1S,3R)-3-(2-(2-fluorophenyl)-6-(1-methyl-1H-pyrazol-3-yl)-1H-imidazo[4,5-c]pyridin-1-yl)cyclohexyl)thiazole-2-carboxamide]: the IC50 at BCAT2 [1] is no more than 100 nM; against BCAT2 [2] it was no more than 100 nM; on hBCAT1, less than 500 nM.

For the compound `CC(C)Cc1nc2cnc(-c3ccccn3)cc2n1[C@H]1C[C@@H](NC(=O)c2ncc(Cl)s2)CN(C)C1` [Example 262, 5-chloro-N-((3R,5S)-5-(2-isobutyl-6-(pyridin-2-yl)-1H-imidazo[4,5-c]pyridin-1-yl)-1-methylpiperidin-3-yl)thiazole-2-carboxamide], the values for the IC50 on BCAT2 [1], against BCAT2 [2] and against hBCAT1 were 100 to 500 nM, greater than 1000 nM and greater than 5000 nM, respectively.

Take `CO[C@H]1C[C@@H](NC(=O)c2ncc(Cl)s2)C[C@@H](n2c(-c3ccccc3F)nc3cnc(-c4nc[nH]n4)cc32)C1` (stereo in doubt) [Example 420, 5-chloro-N-((1S,3R,5S)-3-(2-(2-fluorophenyl)-6-(1H-1,2,4-triazol-3-yl)-1H-imidazo[4,5-c]pyridin-1-yl)-5-methoxycyclohexyl)thiazole-2-carboxamide]: the IC50 on BCAT2 [1] is no more than 100 nM; against BCAT2 [2], no more than 100 nM; against hBCAT1 it was less than 500 nM.

Consider `O=C(N[C@H]1CCC[C@@H](n2c(-c3ccccc3F)nc3cnc(-c4ccc(F)cn4)cc32)C1)c1ncc(Cl)s1` [Example 170, 5-chloro-N-((1S,3R)-3-(2-(2-fluorophenyl)-6-(5-fluoropyridin-2-yl)-1H-imidazo[4,5-c]pyridin-1-yl)cyclohexyl)thiazole-2-carboxamide], for which the IC50 was no more than 100 nM against BCAT2 [1], no more than 100 nM against BCAT2 [2] and less than 500 nM against hBCAT1.

As to `O=C(N[C@H]1CCC[C@@H](n2c(-c3ccccc3F)nc3cnc(-c4nc[nH]n4)cc32)[C@@H]1O)c1ncc(Cl)s1` [Example 400, 5-chloro-N-((1S,2R,3R)-3-(2-(2-fluorophenyl)-6-(1H-1,2,4-triazol-3-yl)-1H-imidazo[4,5-c]pyridin-1-yl)-2-hydroxycyclohexyl)thiazole-2-carboxamide], the IC50 on BCAT2 [1] is no more than 100 nM; against BCAT2 [2] it was no more than 100 nM; against hBCAT1, less than 500 nM.

The values above are taken from patent US20260159512A1, “BCAT2 INHIBITORS” (AGIOS PHARMACEUTICALS, INC., priority 2021, published 2026).
